Values quoted from earlier work as cited in patent publication US20080268043A1, “Controlled Release Compositions Comprising an Antipsychotic Agent” (ELAN PHARMA INTERNATIONAL LIMITED, priority 2005, published 2008).

Conditions: within the proposed clinical dose range

OCCOCCN1CCN(C2=Nc3ccccc3Sc3ccccc32)CC1 [quetiapine]
mean terminal half-life: about 6 hours
